Assay results published in ChEMBL document CHEMBL3044985, “Novel antitubercular diallyl/dibenzylthiosemicarbazones endowed with high activity toward multi-drug-resistant tuberculosis” (Med Chem Res, 2012).
In brackets after ≈: the same amount, converted by molar mass.

Columns and labels:
[1] = system: Mycobacterium tuberculosis; assay: Antitubercular activity against Mycobacterium tuberculosis H37Rv by NCCLS agar dilution method; assay type: functional
[2] = Cytotoxicity against Chlorocebus aethiops (African green monkey) Vero cells assessed as cell viability after 72 hr by MTT assay; assay type: cell-based; details: chlorocebus sabaeus
[3] = Selectivity index, ratio of CC50 for african green monkey Vero cells to MIC for Mycobacterium tuberculosis H37Rv; assay type: toxicity, cell-based; details: read-out: Selectivity Index
[4] = system: Mycobacterium tuberculosis; assay: Ratio of ethambutol MIC to compound MIC for Mycobacterium tuberculosis H37Rv; assay type: functional
[5] = system: Mycobacterium tuberculosis; assay: Ratio of ofloxacin MIC to compound MIC for Mycobacterium tuberculosis H37Rv; assay type: functional
[6] = system: Mycobacterium tuberculosis; assay: Ratio of isoniazid MIC to compound MIC for Mycobacterium tuberculosis H37Rv; assay type: functional

S=C(NN=C(c1ccccc1)c1ccccc1)N(Cc1ccccc1)Cc1ccccc1
MIC [1]: 3.58 µM (≈ 1.56 µg/mL)
CC50 at 72 h [2]: 143 µM

C=CCN(CC=C)C(=S)N/N=C(/C)CC
MIC [1]: 111 µM (≈ 25 µg/mL)

CC/C(C)=N\NC(=S)N(Cc1ccccc1)Cc1ccccc1
MIC [1]: 76.8 µM (≈ 25 µg/mL)

O=[N+]([O-])c1ccc(/C=N\NC(=S)N(Cc2ccccc2)Cc2ccccc2)cc1
MIC [1]: 0.98 µM (≈ 0.396 µg/mL)
CC50 at 72 h [2]: < 155 µM

C=CCN(CC=C)C(=S)N/N=C\c1ccc(Cl)cc1
MIC [1]: 5.3 µM (≈ 1.56 µg/mL)
CC50 at 72 h [2]: 213 µM

S=C(N/N=C\c1ccc(Cl)cc1)N(Cc1ccccc1)Cc1ccccc1
MIC [1]: 1.98 µM (≈ 0.78 µg/mL)
CC50 at 72 h [2]: 159 µM

C=CCN(CC=C)C(=S)N/N=C\c1ccccc1C
MIC [1]: 22.9 µM (≈ 6.25 µg/mL)
CC50 at 72 h [2]: > 229 µM

Cc1ccccc1/C=N\NC(=S)N(Cc1ccccc1)Cc1ccccc1
MIC [1]: 8.38 µM (≈ 3.13 µg/mL)
CC50 at 72 h [2]: 167 µM

C=CCN(CC=C)C(=S)N/N=C\c1ccccc1O
MIC [1]: 45.4 µM (≈ 12.5 µg/mL)

Oc1ccccc1/C=N\NC(=S)N(Cc1ccccc1)Cc1ccccc1
MIC [1]: 8.33 µM (≈ 3.13 µg/mL)
CC50 at 72 h [2]: 166 µM

C=CCN(CC=C)C(=S)N/N=C\c1ccc([N+](=O)[O-])o1
MIC [1]: 2.65 µM (≈ 0.78 µg/mL)
CC50 at 72 h [2]: < 212 µM

O=[N+]([O-])c1ccc(/C=N\NC(=S)N(Cc2ccccc2)Cc2ccccc2)o1
selectivity ratio [3]: > 316
Ratio [4]: 9.4
Ratio [5]: 4.2
Ratio [6]: 1.3
MIC [1]: 0.5 µM (≈ 0.197 µg/mL)
CC50 at 72 h [2]: 158 µM

C=CCN(CC=C)C(=S)N/N=C(/C)c1ccccc1
MIC [1]: 22.9 µM (≈ 6.25 µg/mL)
CC50 at 72 h [2]: 229 µM

C/C(=N/NC(=S)N(Cc1ccccc1)Cc1ccccc1)c1ccccc1
MIC [1]: 16.7 µM (≈ 6.25 µg/mL)
CC50 at 72 h [2]: 167 µM

C=CCN(CC=C)C(=S)N/N=C(/C)c1ccccc1O
MIC [1]: 21.6 µM (≈ 6.25 µg/mL)
CC50 at 72 h [2]: 216 µM

C/C(=N/NC(=S)N(Cc1ccccc1)Cc1ccccc1)c1ccccc1O
MIC [1]: 8.03 µM (≈ 3.13 µg/mL)
CC50 at 72 h [2]: 160 µM

C=CCN(CC=C)C(=S)N/N=C(/C)c1ccc(O)cc1
MIC [1]: 21.6 µM (≈ 6.25 µg/mL)
CC50 at 72 h [2]: 216 µM

C/C(=N/NC(=S)N(Cc1ccccc1)Cc1ccccc1)c1ccc(O)cc1
MIC [1]: 16.1 µM (≈ 6.26 µg/mL)
CC50 at 72 h [2]: 160 µM

C=CCN(CC=C)C(=S)N/N=C(/C)c1ccc(N)cc1
MIC [1]: 43.3 µM (≈ 12.5 µg/mL)

C/C(=N/NC(=S)N(Cc1ccccc1)Cc1ccccc1)c1ccc(N)cc1
MIC [1]: 16.1 µM (≈ 6.25 µg/mL)
CC50 at 72 h [2]: 161 µM

C=CCN(CC=C)C(=S)N/N=C(/C)c1ccc([N+](=O)[O-])cc1
MIC [1]: 9.83 µM (≈ 3.13 µg/mL)
CC50 at 72 h [2]: < 196 µM

C/C(=N/NC(=S)N(Cc1ccccc1)Cc1ccccc1)c1ccc([N+](=O)[O-])cc1
MIC [1]: 3.72 µM (≈ 1.56 µg/mL)
CC50 at 72 h [2]: < 149 µM

C=CCN(CC=C)C(=S)N/N=C(/C)c1ccc(F)cc1
MIC [1]: 10.7 µM (≈ 3.13 µg/mL)
CC50 at 72 h [2]: 214 µM

C/C(=N/NC(=S)N(Cc1ccccc1)Cc1ccccc1)c1ccc(F)cc1
MIC [1]: 7.99 µM (≈ 3.13 µg/mL)
CC50 at 72 h [2]: 160 µM

C=CCN(CC=C)C(=S)NN=C(c1ccccc1)c1ccccc1
MIC [1]: 9.33 µM (≈ 3.13 µg/mL)
CC50 at 72 h [2]: 186 µM

C=CCN(CC=C)C(=S)N/N=C\c1ccccc1
MIC [1]: 48.2 µM (≈ 12.5 µg/mL)

S=C(N/N=C\c1ccccc1)N(Cc1ccccc1)Cc1ccccc1
MIC [1]: 17.4 µM (≈ 6.26 µg/mL)
CC50 at 72 h [2]: 174 µM

C=CCN(CC=C)C(=S)N/N=C\c1ccccc1[N+](=O)[O-]
MIC [1]: 5.12 µM (≈ 1.56 µg/mL)
CC50 at 72 h [2]: 205 µM

O=[N+]([O-])c1ccccc1/C=N\NC(=S)N(Cc1ccccc1)Cc1ccccc1
MIC [1]: 3.85 µM (≈ 1.56 µg/mL)
CC50 at 72 h [2]: < 155 µM

C=CCN(CC=C)C(=S)N/N=C\c1ccc([N+](=O)[O-])cc1
MIC [1]: 2.56 µM (≈ 0.779 µg/mL)
CC50 at 72 h [2]: < 205 µM

CC[C@@H](CO)NCCN[C@@H](CC)CO [ETHAMBUTOL]
MIC [1]: 4.71 µM (≈ 0.962 µg/mL)
CC50 at 72 h [2]: > 188 µM

NNC(=O)c1ccncc1 [ISONIAZID]
MIC [1]: 0.66 µM (≈ 0.0905 µg/mL)
CC50 at 72 h [2]: > 456 µM

CC1COc2c(N3CCN(C)CC3)c(F)cc3c(=O)c(C(=O)O)cn1c23 (configuration not stated) [OFLOXACIN]
MIC [1]: 2.13 µM (≈ 0.77 µg/mL)
CC50 at 72 h [2]: > 155 µM

CO[C@H]1/C=C/O[C@@]2(C)Oc3c(C)c(O)c4c(O)c(c(/C=N/N5CCN(C)CC5)c(O)c4c3C2=O)NC(=O)/C(C)=C\C=C\[C@H](C)[C@H](O)[C@@H](C)[C@@H](O)[C@@H](C)[C@H](OC(C)=O)[C@@H]1C [RIFAMPIN]
MIC [1]: 0.23 µM (≈ 0.189 µg/mL)
CC50 at 72 h [2]: > 75.9 µM
